Experimental data reported in article PMC4424274, “Evaluation of [^11C]CB184 for imaging and quantification of TSPO overexpression in a rat model of herpes encephalitis” (European Journal of Nuclear Medicine and Molecular Imaging, 2015).

Key:
TSPO [1] = biological target: T1, TSPO (Rattus norvegicus, UniProt P16257); assay: Ex vivo biodistribution of [^11C]CB184 in control and HSE rats
T1 construct: from tissue; host or cells: Brain regions and peripheral organs of male Wistar rats, measured in vivo by PET and ex vivo by gamma counting
Description: PET scans were performed using a microPET Focus 220 camera (Siemens Medical Solutions Inc., Malvern, PA) on either day 6 or day 7 after inoculation with HSV-1 [18], depending on the severity of clinical symptoms. The rats were anaesthetized with 5 % isoflurane mixed with medical air at a flow rate of […]. After induction, anaesthesia was maintained with 1.5 – 2 % of isoflurane. The anaesthetized rats were positioned in the camera in a supine position with the head in the field of view. The PET tracer [^11C]CB184 was manually injected via the penile vein, and at the same time a dynamic 60-min scan was started. […] For 30 min the animals were kept under anaesthesia on the operation table after injection of the PET tracer into the penile vein, and were then placed in the scanner for a 30-min dynamic scan. A transmission scan was obtained in all rats using a ^57Co point source for attenuation and scatter correction. In the pretreated group, 5 mg/kg unlabelled PK11195 (Sigma-Aldrich, St. Louis, MO) in dimethyl sulphoxide (DMSO) at a concentration of 10 mg/ml was administered via a tail vein 5 min before injection of the PET tracer.
The brain and peripheral organs were excised and dissected, and blood was centrifuged to collect a plasma sample. Tissues were weighed and radioactivity was measured in a gamma counter (LKB Wallac, Turku, Finland). Tracer uptake in each region was corrected for the injected tracer dose and body weight and expressed as standardized uptake value (SUV), which was defined as: radioactivity (MBq/cm^3)/[injected dose (MBq)/body weight (g)].

[2] = Radioactive metabolites of [^11C]CB184 in brain; assay type: in vivo, rat; settings: 30 min after injection
Description: To determine if radioactive metabolites of [^11C]CB184 entered the brain, the brain of one control rat and one HSE rat were isolated 30 min after injection and homogenized with a solution of ice-cold acetonitrile (3 ml). The homogenate was centrifuged at 6,000 rpm (3,461 g) for 10 min. The supernatant was then collected and processed by HPLC, as described above.

TSPO [3] = test system: TSPO; design: method as in PMID 25616581; settings: 6-hydroxydopamine-injured striatum in rats; cited from earlier work
[4] = HSE rats pretreated with 5 mg/kg PK11195, approximately 75 min after injection
[5] = HSE rats, approximately 75 min after injection
[6] = control (PBS) rats pretreated with 5 mg/kg PK11195, approximately 75 min after injection
[7] = control rats, approximately 75 min after injection

Question: Which results are given for CCCN(CCC)C(=O)Cc1c(-c2ccc(O[11CH3])cc2)nc2c(Cl)cc(Cl)cn12 [[^11C]CB184]?
Answer: SUV ex vivo, Adrenals (TSPO [1]; [4]): 8.14 ± 7.09 SUV; SUV ex vivo, Bone (TSPO [1]; [4]): 0.39 ± 0.24 SUV; SUV ex vivo, Colon (TSPO [1]; [4]): 0.49 ± 0.36 SUV; SUV ex vivo, Fat (TSPO [1]; [4]): 0.72 ± 0.49 SUV; SUV ex vivo, Heart (TSPO [1]; [4]): 0.77 ± 0.53 SUV; SUV ex vivo, Hippocampus (TSPO [1]; [4]): 0.09 ± 0.05 SUV; SUV ex vivo, Ileum (TSPO [1]; [4]): 2.74 ± 1.77 SUV; SUV ex vivo, Kidney (TSPO [1]; [4]): 1.12 ± 0.75 SUV; SUV ex vivo, Liver (TSPO [1]; [4]): 10.71 ± 9.25 SUV; SUV ex vivo, Lung (TSPO [1]; [4]): 1.62 ± 0.98 SUV; SUV ex vivo, Medulla (TSPO [1]; [4]): 0.13 ± 0.06 SUV; SUV ex vivo, Pancreas (TSPO [1]; [4]): 0.62 ± 0.37 SUV; SUV ex vivo, Parietal/temporal/occipital cortex (TSPO [1]; [4]): 0.10 ± 0.05 SUV; SUV ex vivo, Plasma (TSPO [1]; [4]): 0.19 ± 0.04 SUV; SUV ex vivo, Pons (TSPO [1]; [4]): 0.12 ± 0.10 SUV; SUV ex vivo, Red blood cells (TSPO [1]; [4]): 0.11 ± 0.07 SUV; SUV ex vivo, Spleen (TSPO [1]; [4]): 0.71 ± 0.55 SUV; SUV ex vivo, Stomach (TSPO [1]; [4]): 0.82 ± 0.60 SUV; SUV ex vivo, Striatum (TSPO [1]; [4]): 0.09 ± 0.06 SUV; SUV ex vivo, Submandibularis (TSPO [1]; [4]): 0.79 ± 0.56 SUV; SUV ex vivo, Testis (TSPO [1]; [4]): 0.29 ± 0.21 SUV; SUV ex vivo, Thymus (TSPO [1]; [4]): 0.74 ± 0.46 SUV; SUV ex vivo, Whole brain (TSPO [1]; [4]): 0.08 ± 0.08 SUV; SUV ex vivo, Adrenals (TSPO [1]; [5]): 13.86 ± 4.42 SUV; SUV ex vivo, Amygdala/piriform cortex (TSPO [1]; [5]): 0.52 ± 0.21 SUV; SUV ex vivo, Bone (TSPO [1]; [5]): 0.98 ± 0.14 SUV; SUV ex vivo, Colon (TSPO [1]; [5]): 3.29 ± 0.81 SUV; SUV ex vivo, Fat (TSPO [1]; [5]): 0.57 ± 0.39 SUV; SUV ex vivo, Heart (TSPO [1]; [5]): 23.69 ± 2.71 SUV; SUV ex vivo, Hippocampus (TSPO [1]; [5]): 0.55 ± 0.21 SUV; SUV ex vivo, Ileum (TSPO [1]; [5]): 6.20 ± 2.67 SUV; SUV ex vivo, Kidney (TSPO [1]; [5]): 13.17 ± 2.25 SUV; SUV ex vivo, Liver (TSPO [1]; [5]): 7.97 ± 1.73 SUV; SUV ex vivo, Lung (TSPO [1]; [5]): 22.53 ± 2.41 SUV; SUV ex vivo, Medulla (TSPO [1]; [5]): 1.51 ± 0.57 SUV; SUV ex vivo, Olfactory bulb (TSPO [1]; [5]): 1.52 ± 0.22 SUV; SUV ex vivo, Pancreas (TSPO [1]; [5]): 4.23 ± 0.76 SUV; SUV ex vivo, Parietal/temporal/occipital cortex (TSPO [1]; [5]): 0.41 ± 0.14 SUV; SUV ex vivo, Plasma (TSPO [1]; [5]): 0.28 ± 0.24 SUV; SUV ex vivo, Pons (TSPO [1]; [5]): 1.26 ± 0.52 SUV; SUV ex vivo, Red blood cells (TSPO [1]; [5]): 0.13 ± 0.01 SUV; SUV ex vivo, Spleen (TSPO [1]; [5]): 11.76 ± 1.42 SUV; SUV ex vivo, Stomach (TSPO [1]; [5]): 5.88 ± 1.87 SUV; SUV ex vivo, Striatum (TSPO [1]; [5]): 0.45 ± 0.15 SUV; SUV ex vivo, Submandibularis (TSPO [1]; [5]): 4.89 ± 0.75 SUV; SUV ex vivo, Testis (TSPO [1]; [5]): 0.88 ± 0.12 SUV; SUV ex vivo, Thymus (TSPO [1]; [5]): 3.23 ± 0.33 SUV; SUV ex vivo, Whole brain (TSPO [1]; [5]): 0.99 ± 0.21 SUV; SUV ex vivo, Adrenals (TSPO [1]; [6]): 7.72 ± 5.20 SUV; SUV ex vivo, Bone (TSPO [1]; [6]): 0.31 ± 0.19 SUV; SUV ex vivo, Colon (TSPO [1]; [6]): 0.42 ± 0.24 SUV; SUV ex vivo, Fat (TSPO [1]; [6]): 0.48 ± 0.18 SUV; SUV ex vivo, Heart (TSPO [1]; [6]): 0.68 ± 0.40 SUV; SUV ex vivo, Hippocampus (TSPO [1]; [6]): 0.12 ± 0.08 SUV; SUV ex vivo, Ileum (TSPO [1]; [6]): 2.31 ± 1.15 SUV; SUV ex vivo, Kidney (TSPO [1]; [6]): 0.72 ± 0.44 SUV; SUV ex vivo, Liver (TSPO [1]; [6]): 11.28 ± 5.43 SUV; SUV ex vivo, Lung (TSPO [1]; [6]): 0.95 ± 0.57 SUV; SUV ex vivo, Medulla (TSPO [1]; [6]): 0.12 ± 0.07 SUV; SUV ex vivo, Pancreas (TSPO [1]; [6]): 0.57 ± 0.34 SUV; SUV ex vivo, Parietal/temporal/occipital cortex (TSPO [1]; [6]): 0.10 ± 0.06 SUV; SUV ex vivo, Plasma (TSPO [1]; [6]): 0.27 ± 0.15 SUV; SUV ex vivo, Pons (TSPO [1]; [6]): 0.12 ± 0.08 SUV; SUV ex vivo, Red blood cells (TSPO [1]; [6]): 0.11 ± 0.05 SUV; SUV ex vivo, Spleen (TSPO [1]; [6]): 0.70 ± 0.47 SUV; SUV ex vivo, Stomach (TSPO [1]; [6]): 0.70 ± 0.46 SUV; SUV ex vivo, Striatum (TSPO [1]; [6]): 0.11 ± 0.07 SUV; SUV ex vivo, Submandibularis (TSPO [1]; [6]): 0.70 ± 0.46 SUV; SUV ex vivo, Testis (TSPO [1]; [6]): 0.30 ± 0.24 SUV; SUV ex vivo, Thymus (TSPO [1]; [6]): 0.72 ± 0.44 SUV; SUV ex vivo, Whole brain (TSPO [1]; [6]): 0.15 ± 0.08 SUV; SUV ex vivo, Adrenals (TSPO [1]; [7]): 14.84 ± 5.45 SUV; SUV ex vivo, Bone (TSPO [1]; [7]): 1.00 ± 0.26 SUV; SUV ex vivo, Colon (TSPO [1]; [7]): 3.38 ± 0.97 SUV; SUV ex vivo, Fat (TSPO [1]; [7]): 0.43 ± 0.21 SUV; SUV ex vivo, Heart (TSPO [1]; [7]): 22.81 ± 2.80 SUV; SUV ex vivo, Hippocampus (TSPO [1]; [7]): 0.39 ± 0.18 SUV; SUV ex vivo, Ileum (TSPO [1]; [7]): 6.41 ± 3.07 SUV; SUV ex vivo, Kidney (TSPO [1]; [7]): 12.52 ± 2.22 SUV; SUV ex vivo, Liver (TSPO [1]; [7]): 7.57 ± 1.64 SUV; SUV ex vivo, Lung (TSPO [1]; [7]): 18.39 ± 2.20 SUV; SUV ex vivo, Medulla (TSPO [1]; [7]): 0.59 ± 0.14 SUV; SUV ex vivo, Pancreas (TSPO [1]; [7]): 3.55 ± 0.52 SUV; SUV ex vivo, Parietal/temporal/occipital cortex (TSPO [1]; [7]): 0.32 ± 0.06 SUV; SUV ex vivo, Plasma (TSPO [1]; [7]): 0.18 ± 0.08 SUV; SUV ex vivo, Pons (TSPO [1]; [7]): 0.63 ± 0.08 SUV; SUV ex vivo, Red blood cells (TSPO [1]; [7]): 0.19 ± 0.18 SUV; SUV ex vivo, Spleen (TSPO [1]; [7]): 13.23 ± 2.64 SUV; SUV ex vivo, Stomach (TSPO [1]; [7]): 5.04 ± 0.82 SUV; SUV ex vivo, Striatum (TSPO [1]; [7]): 0.28 ± 0.07 SUV; SUV ex vivo, Submandibularis (TSPO [1]; [7]): 4.28 ± 1.02 SUV; SUV ex vivo, Testis (TSPO [1]; [7]): 0.98 ± 0.11 SUV; SUV ex vivo, Thymus (TSPO [1]; [7]): 3.36 ± 0.58 SUV; SUV ex vivo, Whole brain (TSPO [1]; [7]): 0.66 ± 0.16 SUV; SUV ex vivo, adrenal glands (mean ± SD) (TSPO [1]; pretreated with unlabelled PK11195, control and HSE groups together): 7.93 ± 5.87 SUV; Percentage of intact tracer present in the brain [2]: approximately 99%; Inflammation-induced binding as compared with (R)-[^11C]PK11195 (TSPO [3]): comparable
